The structures appear in SMILES notation. Values joined by “and” are separate entries in the source; they are usually repeats but may differ in a detail not shown here. Equal values may be shown once. “Also recorded” adds a separate entry of the source.

The source of these data is patent US9907787B2, “Method of supplementing the diet and ameliorating oxidative stress” (priority 2008, dated 2018).

The conditions of series [1]: water soluble antioxidants and chelators, rapidly cleared by kidneys or liver; cited from earlier work.
Series [2] concerns rats. As to conditions: intraperitoneal; cited from earlier work.
Series [3] deals with glutathione-S-transferase (GST). The experiment in a line: Effect of OSR on Glutathione-S-transferase (GST) levels. The series is classed as in vivo, human. To be noted: for Glutathione-S-transferase (GST) levels: lines = patients 1-10. From the text: GST is an enzyme that uses glutathione (GSH) as a substrate to covalently modify certain organic toxins by ‘transferring GSH’ to a P-450 enzyme oxidized site on the toxin. […] GST was non-detectable in all 10 patients at the start of the study and was detectable in all 10 patients at the end of the study. The change in the redox level most likely had something to do with the appearance of this enzyme. It is a common mechanism in cellular regulation that the lowering of a substrate (e.g. glutathione) needed at several locations results in the suppressed expression of the enzyme (e.g. GST) that use this substrate for reactions that are less necessary to support survival. The buildup of GSH most likely induces the expression of GST and this buildup accounts for the induction of new GST synthesis.

Series [4] relates to rats injected with mercuric chloride. The series is described as follows: Protective effects of OSR on rats injected with mercuric chloride. The series is classed as in vivo, rat. Set-up: key to survival (Alive/Dead): A = Alive; D = Dead. As to conditions: for survival (Alive/Dead): Rat 1-3. On the procedure: Protective effects of OSR on rats injected subcutaneously with mercuric chloride.
Our experiments were designed around this value.
For each of the experiments nine, 5-7 weeks old, rats were chosen. They were divided into three groups and they were fed rat chow and water ad libitum.
The mercuric chloride was dissolved in PBS/DMSO and injected intraperitoneally at time zero.
The compound OSR was dissolved in 0.75 ml DMSO and 0.25 ml PBS. Injection was subcutaneous under the skin covering the stomach. These were done 20 min. after the injection of the mercuric chloride.

A short description of series [5]: Toxicity / LD-50 in test animals. It counts as in vivo. From the text: In fact, OSR is so non-toxic that an LD-50 could not be identified and was established as greater than 5 grams per kilogram body weight.
A short description of series [6]: Kinetic study: plasma half-life, tissue distribution and clearance. It counts as in vivo. From the text: The mitochondria, especially if abnormal or damaged by heavy metals or radiation, are the main producers of the free radicals that cause cellular damage to the membranes, proteins or nucleic acids (DNA, RNA). Therefore, OSR is positioned to intercept these free radicals before they do damage and the ORAC scores show us OSR is exceptional at scavenging these toxic chemicals. Thus, OSR operates as an antioxidant in a more efficient and effective level than antioxidants generally known in the art.
It should also be appreciated that OSR is cleared from all tissues tested by over 90% twenty-four hours after ingestion. Therefore, no toxic build-up of OSR occurs in the mammal.
Preferred dosage forms for oral administration include the isolated compounds in powder form. Such powders may be taken up with a swoop and spread onto food or mixed into drinks for easy consumption without bad taste. The pure compounds may be pre-mixed with certain dietary ingredients such as butter, olive oil, corn oil, albumin, whey or other foods which will help in absorption of the compounds by the mere process of dissolving them. Using OSR dissolved in corn oil, it was determined that it takes two hours post ingestion for the maximum level of OSR to show up in the plasma of all tested animals.

A short description of series [7]: Affinity for heavy metals. The series is classed as binding. From the text:
(§1) Also, copper and zinc are primarily found in a water environment (hydrophilic aspects) of the body whereas OSR partitions into the hydrophobic aspects. This separation may play a role in the lack of OSR removing copper and zinc. However, in diseases with excess free copper, iron or zinc, OSR is likely to be able to bind and decrease the toxicity of these metals.

Series [8] is described as follows: Storage stability. It counts as physicochemical. As to conditions: sealed plastic test tubes, sixteen months, room temperature. From the text: OSR also has excellent stability when stored in sealed plastic test tubes with less than three percent breakdown occurring at sixteen months of storage at room temperature. Most antioxidants break down very rapidly when exposed to air or water but OSR is exceptional in this regards.

Series [9] has as its system blood GSH, GSSG. The series is described as follows: Effect of daily OSR on blood GSH, GSSG levels and GSH/GSSG ratios. As to conditions: 10 subjects, 200 mg of OSR per day. The series is classed as in vivo, human. From the text:
Effect of daily administration of OSR on key biochemical parameters. […] Also, the major improvement seemed to result from the very significant decrease in oxidized glutathione (GSSG) instead of a total increase in all forms of glutathione. This would be best explained by OSR scavenging hydroxyl free radicals salvaging the GSH by preventing its oxidation to GSSG. This change occurred in 10 of 10 subjects.
All were in reasonable health with no obvious bacterial infections. GSH/GSSG ratios increased in all primarily due to the drop in GSSG levels in all subjects. […] The average tGSH/GSSG ratio almost doubled caused by a near average halving of the GSSG levels.

The nature of series [10]: Solubility. It counts as physicochemical. From the text:
In fact, the compounds in U.S. Pat. No. 6,586,600 were mostly ineffective at treating environmental contaminations of heavy metal due to their insolubility in water and many organic solvents. The conventional wisdom is that any metal chelator has to be water soluble to be effective is evidenced by the currently known chelators such as dimercapopropane sulfonate (DMPS), dimercaptosuccinic acid (DMSA), ethylenediaminetetraacetic acid (EDTA) and even the natural mammalian heavy metal chelator glutathione. These observations made the use of the compounds questionable for any mammalian based treatment regarding the removal of charged toxic metals like Hg^2+, Pb^2+, and Cd^2+ which are water soluble and would most likely be located in the aqueous aspects of mammalian tissues. Additionally, any compound that is not water soluble nor soluble in most organic solvents would not be expected to pass the intestinal endothelial membrane barrier and enter the blood and tissues of the mammal. Further, the compound(s) would have to cross the cell membrane to be able to interact with and bind the intracellular located heavy metal responsible for the toxic effects. It would also have to be able to cross the blood brain barrier to be effective for any neurotoxic heavy metal effect. […]

Series [11] can be described thus: Effect of OSR treatment on essential elements. The series is classed as in vivo. As to conditions: treatment with OSR.
From the text: as §1

For series [12], the system named is cysteine, methionine, homocysteine. The experiment in a line: Effect of OSR on blood sulfur containing amino acid levels. The series is classed as in vivo, human. To be noted: 10 patients, two month period. From the text:
To determine if OSR changed the level of cysteine, the rate limiting amino acid in glutathione synthesis, the level of all thiol containing amino acids was done for the same 10 patients for a two month period. […] The homocysteine level was high in patient #9, a person diagnosed with Alzheimer's disease, over the two month testing their levels dropped to near normal levels.
The possible exception was the homocysteine levels in patient #9, a person with Alzheimer's disease.

A short description of series [13]: ORAC (oxygen-radical-absorbance-capacity) score. The series is classed as biochemical. Here is the method:
As should be appreciated from the following table, OSR has an exceptionally high ORAC (oxygen-radical-absorbance-capacity) score.
The ORAC score is measured by a compound or elixer's ability to intercept reactive oxygen species, free radicals preventing them from oxidizing a water soluble fluorescent vitamin-E derivative. OSR has the ability in the body to protect vitamin-E (a fat soluble vitamin) and other fat soluble natural compounds such as lipids from damage by oxidizing free radicals since it partitions into the hydrophobic areas where they exist and reacts with free radicals more effectively than they do, thereby scavenging the hydroxyl free radicals and preventing them from doing damage. […] OSR is more capable of reacting with these radicals than vitamin-E and, accordingly, OSR should provide even better protection. In fact, OSR should salvage vitamin E and D in vivo.

For `O=C(O)C(S)C(S)C(=O)O` (centres unmarked) [DMSA, dimercaptosuccinic acid], the half-life result in series [1] is reported as “less than one to two”.
As to `N[C@@H](CCC(=O)N[C@@H](CS)C(=O)NCC(=O)O)C(=O)O` [glutathione], the half-life entry in series [1] was “less than one to two”.
Regarding `[Cl][Hg][Cl]` [mercury chloride], the “LD 50” value in series [2] is given as 3.2 mg/kg body weight.
For the molecule `Oc1ccc(C=Cc2cc(O)cc(O)c2)cc1` [resveratrol], the half-life entry in series [1] was “less than one to two”.
`O=C(NCCS)c1cccc(C(=O)NCCS)c1` [OSR, N,N′-bis(2-mercaptoethyl)isophthalamide]: the “glutathione-S-transferase (GST), result in words” value in series [3] (10 patients, after OSR treatment) is reported as “consistently elevated in all 10 patients”. Further, the “Glutathione-S-transferase (GST) levels” value in series [3] (time 1 month) was 0.58 ng/mL and 0.46 ng/mL; in series [3] (time 2 months), 0.53 ng/mL and 0.43 ng/mL and 0.37 ng/mL and 0.32 ng/mL and 0.63 ng/mL and 0.48 ng/mL. Besides, the “survival (Alive/Dead)” value is reported as “A” in series [4] (0 hr, mercury chloride 2 mg/kg body weight, OSR 0.5 millimoles/kg subcutaneous 20 min after); “A” in series [4] (0 hr, mercury chloride 14 mg/kg body weight, OSR 1 mM/kg body weight subcutaneous 20 min after); “A” in series [4] (1 week, mercury chloride 2 mg/kg body weight, OSR 0.5 millimoles/kg subcutaneous 20 min after); “A” in series [4] (1 week, mercury chloride 14 mg/kg body weight, OSR 1 mM/kg body weight subcutaneous 20 min after); “A” in series [4] (6 hr, mercury chloride 2 mg/kg body weight, OSR 0.5 millimoles/kg subcutaneous 20 min after); “A” in [4] (6 hr, mercury chloride 14 mg/kg body weight, OSR 1 mM/kg body weight subcutaneous 20 min after). Besides, the “survival (Alive/Dead)” value in series [4] (12 hr, mercury chloride 2 mg/kg body weight, OSR 0.5 millimoles/kg subcutaneous 20 min after) was “A”; in [4] (12 hr, mercury chloride 14 mg/kg body weight, OSR 1 mM/kg body weight subcutaneous 20 min after) it was “A”; in series [4] (24 hr, mercury chloride 2 mg/kg body weight, OSR 0.5 millimoles/kg subcutaneous 20 min after), “A”; in [4] (24 hr, mercury chloride 14 mg/kg body weight, OSR 1 mM/kg body weight subcutaneous 20 min after), “A”; in [4] (48 hr, mercury chloride 2 mg/kg body weight, OSR 0.5 millimoles/kg subcutaneous 20 min after) it was “A”; in series [4] (48 hr, mercury chloride 14 mg/kg body weight, OSR 1 mM/kg body weight subcutaneous 20 min after), “D and A”. In [4] (rats given 0.6 lethal dose of mercury chloride, 10-fold excess of OSR twenty-thirty minutes later), the “protection from mercury induced toxic effects (blood in urine and feces, death, weight loss, ataxia)” value is given as “protected from mercury induced toxic effects”. Moreover, the “excretion route of OSR bound mercury” value in [4] (rats given mercury chloride and OSR) is on record as “primarily excreted through the fecal route”. The protection from death entry in [4] (rats injected with 1-5 levels (or higher) of lethal doses of mercury chloride, single 10-fold excess of OSR dissolved in DMSO) is listed as “protected from death”. Moreover, the LD-50 result in series [5] is on record as “greater than 5 grams per kilogram body weight”. In addition, in series [5] (levels up to 5,000 mg per day), the toxicity entry is given as “without toxicity”. For the same molecule, in series [6] (24 hours post-ingestion, OSR dissolved in corn oil), the “OSR levels relative to peak values seen at hour 2” value is on record as 4-12%. The “time post ingestion for the maximum level of OSR in plasma” value in series [6] (OSR dissolved in corn oil, all tested animals) was “two”. Besides, the “blood brain barrier / tissue entry” value in series [6] (kinetic study, all tissues tested) is “crosses the blood brain barrier”. Also, in [6] (plasma of test animals), the half-life in plasma entry is recorded as “about six to seven”. For the same molecule, the “cleared from all tissues tested” value in series [6] (twenty-four hours after ingestion) was “over 90%”. Further, the “affinity for mercury, lead, arsenic and cadmium” value in series [7] was “exceptionally high affinity”. Moreover, the breakdown on storage entry in series [8] is “less than three”. Moreover, in series [9] (two months), the “GSH levels, result in words” value is given as “increased slightly in 7 of 10”. The “redox ratio (GSH/GSSG), result in words” value in [9] (whole blood, OSR taken regularly, approximately 60 days) was “significantly increase; also recorded: dramatically improved”. For the same molecule, in series [10], the lipid solubility entry was “lipid soluble”. In addition, the “lowering of essential elements copper, iron and zinc” value in series [11] is recorded as “does not result in a significant lowering”. In series [12], the “changes in cysteine, methionine or homocysteine levels, result in words” value is listed as “No significant consistent changes”. Further, in series [13], the “ORAC Score” value is given as 192,400 μmoleTE/100 g.
For the molecule `O=S(=O)(O)CC(S)CS` (centres unmarked) [DMPS, dimercaptopropane sulfonate], the half-life entry in series [1] was “less than one to two”.
